From patent publication US6703413B2 (Rhode Island Hospital, priority 1999, dated 2004)
Like-named read-outs stand apart in the source and are kept apart here.

Tests used:
[1] = tested on: human Burkitt's lymphoma cell line, Daudi cell line; assay: Killing of non-anchorage-dependent tumor cells in suspension culture; assay type: cell-based; conditions: 10-20 μM for 72 hours
Procedure: Two different non-anchorage-dependent tumor cell lines (a human Burkitt's lymphoma cell line, and a Daudi cell line), and precancerous cell line (a human myelodysplastic cell line) were grown in suspension culture.

[2] = tested on: HCT-8 colon tumor cells; assay: Cell growth inhibition, 3 d exposure, cell counting; assay type: cell-based, human
Procedure: (§1) One ml of this cell suspension was added to each well of a 12 well cell culture plate that contained 3 ml of appropriate media plus serum. […] Control wells received 40 μl of 5% Kollidon 17 PF alone. Seventy-two hours later, all cells were harvested by trypsinization and cell number determined electronically using a Coulter Model Z1 particle counter (Coulter Corp., Miami, Fla.) to assess cell growth inhibition. Each experiment was performed in duplicate and repeated a minimum of three times.
(§2) Cells were seeded at a density of 1-5×10^4 cells in each well of a 6 well tissue culture flask. […] After three days, cells were harvested by trypsinization and cell number determined electronically. Cell growth inhibition was determined by comparison to non-Taurolidine exposed control cultures. The IC50 was calculated as the concentration required to inhibit cell number by 50%.

[3] = tested on: HCT-15 colon tumor cells; assay: as above; assay type: cell-based, human
Procedure: as §1, §2

[4] = tested on: DU-145 prostate tumor cells; assay: as above; assay type: cell-based, human
Procedure: as §1, §2

[5] = tested on: H-596 lung tumor cells; assay: as above; assay type: cell-based, human
Procedure: as §1, §2

[6] = tested on: PA-1 human ovarian tumor cells; assay: Phosphotidylserine externalization, Annexin-V FITC binding; assay type: cell-based; conditions: PA-1, 24 h exposure
Procedure: (§3) Three×10^5 cells were seeded in plastic tissue culture flasks. […] Control cultures received an appropriate volume of Kollidine-17P. After an additional 24 h, cells were harvested and phosphotidylserine externalization determined by assessing Annexin-V FITC binding using cytofluorometric techniques. Each bar represents the mean±SE of four determinations. ** p≦0.01, *** p0.001
(§4) Cell membrane phosphotidylserine externalization, as a reflection of the potential induction of apoptosis, was assessed by flow cytometry methods using the ApoAlert® Annexin-V/FITC assay kit. Briefly, 1×10^6 cells were incubated for 24 h in tissue culture medium containing serum. […] Control cultures received 5% Kollidon 17 PF alone. Twenty-four hours later, all cells were harvested by trypsinization. The harvested cells were resuspended in 200 μl of binding buffer and then incubated for 5-15 min in a solution containing 1 μg/ml Annexin-V FITC at room temperature in the dark. The cells were then analyzed to quantitate Annexin-V binding by cytofluorometric techniques that utilized FACScan using the ModFit LT program with statistical analysis as described above.

[7] = tested on: SKOV-3 human ovarian tumor cells; assay: as above; assay type: cell-based; conditions: SKOV-3, 24 h exposure
Procedure: as §3, §4

[8] = tested on: NIH-3T3 cells; assay: as above; assay type: cell-based, murine; conditions: NIH-3T3, 24 h exposure, non-significant
Procedure: as §3, §4

[9] = tested on: NIH-3T3 murine fibroblasts; assay: Cell cycle distribution and sub-G0/G1 DNA debris, flow cytometry; assay type: cell-based; conditions: NIH-3T3, 48 h
Procedure: Three×10^5 cells were seeded in plastic tissue culture flasks. […] Control cultures received an appropriate volume of Kollidine-17P. […] The percentage of DNA debris in the sub-G0/G1 region was assessed using cytofluorometric techniques. Each bar represents the mean (±SE) of three determinations. ** p≦0.01, *** p≦0.001, **** p≦0.0001
For flow cytometry studies, 1×10^6 PA-1, SKOV-3, or NIH-3T3 cells were incubated for 24 h in appropriate media containing serum. […] Control cultures for each cell line were incubated in media containing 40 μl of 5% Kollidon 17 PF alone. Forty-eight hours later, all cells were harvested by trypsinization and prepared for cytofluorometric analysis by standard methods. For example, harvested cells were resuspended in ice cold phosphate-buffered saline at a final cell density of 2×10^6 cells/ml. The cells then were stained for 30 min at room temperature in the dark with a solution of 0.05 mg/ml propidium iodide, 0.6% Igepal, and 1% sodium citrate. Flow cytometry was performed by FACScan (Becton Dickinson, Plymouth, England) using the ModFit LT program (Becton Dickinson). Statistical analysis was performed with the Kruskal Wallis non-parametric ANOVA test followed by Dunn's multiple comparisons test using Instat.
Three×10^5 cells were seeded in plastic tissue culture flasks. […] Control cultures received an appropriate volume of Kollidine-17P. After an additional 48 h, cells were harvested, stained with propidium iodide, and cell cycle distribution assessed using cytofluorometric techniques. Each value represents the percentage of cells in the noted cell cycle phases and is the mean±SEM of three determinations.

[10] = tested on: SKOV-3 cells; assay: PARP cleavage, Western-blot; assay type: cell-based, human; conditions: SKOV-3, 24 h exposure to 50 μM or 100 μM
Procedure: (§5) Two×10^6 cells were seeded in 150 cm^2 tissue culture flasks. […] After an additional twenty-four hours, cells were harvested, cell number determined, and aliquots derived from equal cell numbers generated from each exposure condition. Total proteins from these whole cell lysates were separated by SDS-PAGE and transferred to nitrocellulose filters. Filters were then immunoblotted to detect intact PARP protein and cleavage fragments by using the clone C-2-10 mouse monoclonal anti-PARP antibody (Zymed Laboratories, San Francisco, Calif.). The resulting protein-antibody complexes were visualized by chemiluminescence techniques.
(§6) Western-blot analysis was used to assess of PARP cleavage. Two×10^6 cells were seeded into separate 75 cm^2 tissue culture flasks containing 20 ml of tissue culture media plus serum. […] Twenty-four hours after the addition of Taurolidine, cells were harvested cell number determined, and aliquots containing an equal cell number were generated from each exposure condition. Total proteins from whole cell lysates generated from these aliquots were separated by SDS-PAGE and electrotransferred to nitrocellulose filters. Filters were then processed to detect intact PARP protein and cleavage fragments by using the clone C-2-10 mouse monoclonal anti-PARP antibody (Zymed Laboratories, San Francisco, Calif.). […]

[11] = tested on: PA-1 cells; assay: PARP cleavage, Western-blot; assay type: cell-based, human; conditions: PA-1, 24 h exposure to 50 μM or 100 μM
Procedure: as §5, §6

In the case of O=S1(=O)CCN(CN2CCS(=O)(=O)NC2)CN1 [Taurolidine, Bis-(1,1-dioxoperhydro-1,2,4-thiadiazinyl-4)methane], the cells died [1] is reported as 50%, the IC50 [2] is reported as 11.5 ± 0.5 µM and the IC50 ([2]; Homo sapiens, HCT-8, 72 h) is reported as ~10 µM. The IC50 [3] was 9.6 ± 3 µM, the IC50 ([3]; Homo sapiens, HCT-15, 72 h) was ~10 µM and the IC50 [4] was 9.8 ± 0.8 µM. For the same molecule, the IC50 ([4]; Homo sapiens, DU-145, 72 h) was ~10 µM, the IC50 [5] was 34.2 µM and the IC50 ([5]; Homo sapiens, NCI-H596, 72 h) was ~35 µM. The “increase in Annexin-V binding” value [6] was 4 fold, the “increase in Annexin-V binding” value [7] was 3 fold and the “increase in Annexin-V binding” value [8] was ~5%. For the same molecule, the “Cell Cycle Distribution, G0G1” value ([9]; 25 μM) was 42.5 ± 9.6%, the “Cell Cycle Distribution, G2/M” value ([9]; 25 μM) was 13.0 ± 4.0% and the “Cell Cycle Distribution, S” value ([9]; 25 μM) was 44.9 ± 5.6%. For the same molecule, the “Cell Cycle Distribution, G0G1” value ([9]; 50 μM) was 33.9 ± 10.2%, the “Cell Cycle Distribution, G2/M” value ([9]; 50 μM) was 21.8 ± 4.6% and the “Cell Cycle Distribution, S” value ([9]; 50 μM) was 44.3 ± 5.9%. The “Cell Cycle Distribution, G0G1” value ([9]; 100 μM) was 25.8 ± 1.7%, the “Cell Cycle Distribution, G2/M” value ([9]; 100 μM) was 11.0 ± 11.0% and the “Cell Cycle Distribution, S” value ([9]; 100 μM) was 63.2 ± 9.8%. For the same molecule, the “DNA debris in the sub-G0/G1 region” value ([9]; 25-100 μM) was “did not significantly affect the appearance of DNA debris”, the PARP cleavage [10] was “resulted in PARP cleavage” and the PARP cleavage [11] was “resulted in PARP cleavage”.
